This is an account of results in the Biogen ADME set (Fang et al. 2023).

Molecules are shown by their SMILES. Converted amounts (≈) assume the structure as drawn.

The conditions of this series: for aqueous solubility: pH 6.8.

Broadly, the aqueous solubility is how much of the substance goes into solution per volume. Read a low aqueous solubility as a poorly soluble substance. As to `Cc1cccc(NC(=O)CN2C(=O)N(C)C3(CCCCC3)C2=O)c1C`, the intrinsic clearance, human liver microsomes is 506 mL/min/kg; the intrinsic clearance, rat liver microsomes was found to be 2640 mL/min/kg; the aqueous solubility was 59.8 µg/mL (≈ 174 µM).
In the case of `CCOc1ccc(CN[C@@H]2CCC[C@H]2Cc2cc(C)no2)cc1OC`, the MDR1-MDCK efflux ratio was determined as 2.55; the intrinsic clearance, human liver microsomes was 61.6 mL/min/kg; the intrinsic clearance, rat liver microsomes came to 2220 mL/min/kg.
Regarding `Cc1ccc(C(=O)N(C)Cc2ccccn2)c(O)c1`, the intrinsic clearance, human liver microsomes is no more than 4.74 mL/min/kg and the intrinsic clearance, rat liver microsomes came to 479 mL/min/kg.
Regarding `O=C(Cn1ccnc1)NCc1ccccc1F`, the intrinsic clearance, human liver microsomes is no more than 4.74 mL/min/kg; the intrinsic clearance, rat liver microsomes is no more than 10.7 mL/min/kg; the aqueous solubility is 48.8 µg/mL (≈ 209 µM).
Take `Cc1cc(OCC(=O)N2CCC(n3c(=O)[nH]c4ccccc43)CC2)ccc1Cl`: the intrinsic clearance, human liver microsomes was 432 mL/min/kg and the intrinsic clearance, rat liver microsomes came out at 1450 mL/min/kg.
`CCCCNc1nc2c(cc1C#N)CCC2` yielded an intrinsic clearance, human liver microsomes of 226 mL/min/kg and an intrinsic clearance, rat liver microsomes of 2310 mL/min/kg.
In the case of `Cc1ccc(C)c(OCCN(C)C(=O)c2ccc3c(c2)nnn3C)c1`, the MDR1-MDCK efflux ratio stood at 1.23; the intrinsic clearance, human liver microsomes was 59.5 mL/min/kg; the intrinsic clearance, rat liver microsomes is 1030 mL/min/kg; the aqueous solubility was found to be 29.2 µg/mL (≈ 86.4 µM).
The compound `O=C(c1cccs1)N1CCCC(C(=O)N2Cc3ccccc3C(c3ccccc3)C2)C1` (stereo unspecified) displayed an intrinsic clearance, human liver microsomes of 767 mL/min/kg; an intrinsic clearance, rat liver microsomes of 4910 mL/min/kg; an aqueous solubility of 24.7 µg/mL (≈ 57.4 µM).
In the case of `c1ccc(C2(c3ccccc3)CCCN(Cc3nnc(C4CC4)o3)C2)cc1`, the MDR1-MDCK efflux ratio came out at 0.685; the intrinsic clearance, human liver microsomes turned out to be 246 mL/min/kg; the intrinsic clearance, rat liver microsomes was determined as 1200 mL/min/kg; the aqueous solubility is 35.6 µg/mL (≈ 98.9 µM).
`CC(C)N(CCCNC(=O)Nc1ccc(C(C)(C)C)cc1)C[C@@H]1O[C@@H](n2ccc3c(N)ncnc32)[C@H](O)[C@H]1O`: the MDR1-MDCK efflux ratio is 6.05; the intrinsic clearance, human liver microsomes was 187 mL/min/kg; the intrinsic clearance, rat liver microsomes was 1930 mL/min/kg.
`Cc1cc(C(=O)NC(C)(C)C#N)nn1-c1ccc(F)cc1`: the MDR1-MDCK efflux ratio stood at 1.35; the intrinsic clearance, human liver microsomes is no more than 4.74 mL/min/kg; the intrinsic clearance, rat liver microsomes was 19.7 mL/min/kg.
On to `O=C([C@@H]1CCCN1C(=O)NC(c1ccccc1)c1ccccc1)N1CCCCC1`, for which the MDR1-MDCK efflux ratio was determined as 26.9; the intrinsic clearance, human liver microsomes stood at 205 mL/min/kg; the intrinsic clearance, rat liver microsomes was found to be 867 mL/min/kg.
Regarding `Cc1sc2ncnc(N3CCC(C(=O)Nc4ccccn4)CC3)c2c1C`, the aqueous solubility turned out to be 1.85 µg/mL (≈ 5.03 µM).
`Cc1cc(-n2nc(C)cc2N)nc(C)n1`: the intrinsic clearance, human liver microsomes was found to be 58.9 mL/min/kg and the intrinsic clearance, rat liver microsomes was determined as 125 mL/min/kg.
In the case of `O=S(=O)(c1cn[nH]c1)N1CCCC(c2cccc(-c3cccc(Cl)c3)n2)C1` (stereo unspecified), the MDR1-MDCK efflux ratio stood at 3; the intrinsic clearance, human liver microsomes worked out at 52.6 mL/min/kg; the intrinsic clearance, rat liver microsomes amounted to 394 mL/min/kg; the aqueous solubility worked out at 1.45 µg/mL (≈ 3.6 µM).
Turning to `Cc1ccc2c(c1)c(Cn1ccnc1-c1cccc(C)n1)nn2C`, the MDR1-MDCK efflux ratio was determined as 0.679; the intrinsic clearance, human liver microsomes was 122 mL/min/kg; the intrinsic clearance, rat liver microsomes came out at 1920 mL/min/kg; the aqueous solubility was determined as 32.9 µg/mL (≈ 103 µM).
Regarding `Cc1cc(CSCc2c(C)noc2C)no1`, the intrinsic clearance, human liver microsomes came out at 130 mL/min/kg and the intrinsic clearance, rat liver microsomes was determined as 1910 mL/min/kg.
For the compound `CCOc1ccccc1CNCCc1c[nH]c2ccccc12`, the MDR1-MDCK efflux ratio was found to be 3.34; the intrinsic clearance, human liver microsomes is 127 mL/min/kg; the intrinsic clearance, rat liver microsomes is 2170 mL/min/kg; the aqueous solubility stood at 39.6 µg/mL (≈ 135 µM).
Take `Clc1ccc(NCc2ccoc2)nn1`: the MDR1-MDCK efflux ratio was found to be 0.594; the intrinsic clearance, human liver microsomes was no more than 4.74 mL/min/kg; the intrinsic clearance, rat liver microsomes is no more than 10.7 mL/min/kg; the aqueous solubility stood at 21.5 µg/mL (≈ 102 µM).
As to `CC(C)(C)c1ccc(-c2nc3n(c(=O)c2C#N)CCS3)cc1`, the fraction unbound, human plasma was found to be 0.0539; the fraction unbound, rat plasma was 0.0286; the intrinsic clearance, human liver microsomes is 8.57 mL/min/kg; the intrinsic clearance, rat liver microsomes stood at 191 mL/min/kg. The aqueous solubility is 2.5 µg/mL (≈ 8.03 µM).
As for `Cc1nn(-c2ccc(F)cc2)c(Cl)c1C(=O)N1CCC(S(=O)(=O)C(C)C)CC1`, the MDR1-MDCK efflux ratio was determined as 14.6; the intrinsic clearance, human liver microsomes was no more than 4.74 mL/min/kg; the intrinsic clearance, rat liver microsomes came out at 14.2 mL/min/kg; the aqueous solubility amounted to 67.3 µg/mL (≈ 157 µM).
With `O=C(Nc1ccccc1)Nc1ccc(OC(F)(F)F)cc1`, the MDR1-MDCK efflux ratio worked out at 0.328 and the aqueous solubility is 0.8 µg/mL (≈ 2.7 µM).
With `NCc1cccnc1OCc1ccccc1`, the MDR1-MDCK efflux ratio was 0.434; the intrinsic clearance, human liver microsomes was found to be 11.7 mL/min/kg; the intrinsic clearance, rat liver microsomes stood at 747 mL/min/kg; the aqueous solubility came to 25.5 µg/mL (≈ 119 µM).
The compound `CNc1nc(N2CCCCC2)nc(N2CCCCC2)n1` had an intrinsic clearance, human liver microsomes of 54.7 mL/min/kg; an intrinsic clearance, rat liver microsomes of 801 mL/min/kg; an aqueous solubility of 27 µg/mL (≈ 97.5 µM).
Regarding `CCCc1nnc(NCc2cn3ccc(C)cc3n2)o1`, the MDR1-MDCK efflux ratio is 3.5; the intrinsic clearance, human liver microsomes is no more than 4.74 mL/min/kg; the intrinsic clearance, rat liver microsomes was 34 mL/min/kg; the aqueous solubility was found to be 21.9 µg/mL (≈ 80.9 µM).
As to `CS(=O)(=O)CCNc1ccc2ccc(F)cc2n1`, the MDR1-MDCK efflux ratio was determined as 0.652; the intrinsic clearance, human liver microsomes turned out to be 15.6 mL/min/kg; the intrinsic clearance, rat liver microsomes was determined as 76.4 mL/min/kg; the aqueous solubility amounted to 53.5 µg/mL (≈ 199 µM).
For `COC(=O)c1c(C)[nH]c(C(=O)N(C)Cc2ccc(OC)c(F)c2)c1C`, the MDR1-MDCK efflux ratio was 1.5; the intrinsic clearance, human liver microsomes turned out to be 55 mL/min/kg; the intrinsic clearance, rat liver microsomes came to 591 mL/min/kg; the aqueous solubility was determined as 47.3 µg/mL (≈ 136 µM).
Taken in the same sequence, the figures for `Cc1cccnc1CNc1ccc(C#N)cc1F` were 0.524, 32.9 mL/min/kg, 161 mL/min/kg and 36 µg/mL (≈ 149 µM).
The compound `COc1cc(C)cc(OC)c1-c1ccc(OCC(N)=O)cc1` displayed an intrinsic clearance, human liver microsomes of no more than 4.74 mL/min/kg and an intrinsic clearance, rat liver microsomes of 253 mL/min/kg.
Regarding `COc1nn(C)cc1C(=O)Nc1cccc(-c2cnc3n2CCC3)c1`, the MDR1-MDCK efflux ratio came to 9.53; the fraction unbound, human plasma was 0.0736; the fraction unbound, rat plasma is 0.0485; the intrinsic clearance, human liver microsomes was 10.5 mL/min/kg. Further, the intrinsic clearance, rat liver microsomes was 70.6 mL/min/kg and the aqueous solubility is 36.2 µg/mL (≈ 107 µM).
`CN(Cc1ccncc1)Cc1cc2ccccc2nc1O`: the MDR1-MDCK efflux ratio is 2.51; the intrinsic clearance, human liver microsomes was 15.4 mL/min/kg; the intrinsic clearance, rat liver microsomes stood at 222 mL/min/kg; the aqueous solubility worked out at 48.6 µg/mL (≈ 174 µM).
The compound `Cc1nc(-c2ccc(C)c(O)c2)n(C(C)(C)C)n1` yielded an intrinsic clearance, human liver microsomes of no more than 4.74 mL/min/kg; an intrinsic clearance, rat liver microsomes of 124 mL/min/kg; an aqueous solubility of 12.1 µg/mL (≈ 49.3 µM).
On to `CO[C@H]1[C@H](C2(C)O[C@@H]2CC=C(C)C)[C@]2(CC[C@H]1OC(=O)/C=C/c1ccc(OCCN(C)C)cc1)CO2` (stereo partly specified), for which the intrinsic clearance, human liver microsomes is 210 mL/min/kg and the intrinsic clearance, rat liver microsomes turned out to be 795 mL/min/kg.
For `Cc1nn(C)c2ncc(C(=O)Nc3ccc4c(c3)CCO4)cc12`, the MDR1-MDCK efflux ratio was found to be 0.571; the intrinsic clearance, human liver microsomes turned out to be 8.12 mL/min/kg; the intrinsic clearance, rat liver microsomes is 48.2 mL/min/kg; the aqueous solubility was determined as 22.9 µg/mL (≈ 74.3 µM).
Taken in the same sequence, the figures for `CC(C)C[C@@H](CO)n1cc(-c2ccccc2Cn2cccn2)nn1` were 6.29, 101 mL/min/kg, 513 mL/min/kg and 17 µg/mL (≈ 52.3 µM).
On the same counts, the results for `Cc1ccc(CNC/C=C/c2ccccc2)cn1` are 0.387, 28.5 mL/min/kg, 410 mL/min/kg and 29.1 µg/mL (≈ 122 µM).
Compound `Cc1c(C(=O)NCC2CCSCC2)nnn1-c1cccc2cnccc12` had an intrinsic clearance, human liver microsomes of 177 mL/min/kg and an intrinsic clearance, rat liver microsomes of 1770 mL/min/kg.
On to `CC(C)C(=O)Nc1ccc2cnn(C(C)C)c2c1`, for which the MDR1-MDCK efflux ratio was 1.42; the intrinsic clearance, human liver microsomes came to 14 mL/min/kg; the intrinsic clearance, rat liver microsomes is 55.8 mL/min/kg; the aqueous solubility amounted to 23 µg/mL (≈ 93.7 µM).
As to `Cc1cccc(C(=O)NCC#Cc2ccccc2)n1`, the MDR1-MDCK efflux ratio worked out at 0.421; the intrinsic clearance, human liver microsomes was 38.2 mL/min/kg; the intrinsic clearance, rat liver microsomes was 557 mL/min/kg; the aqueous solubility amounted to 29.7 µg/mL (≈ 119 µM).
`Cn1cc(Br)cc1C(=O)N1CCc2nn[nH]c2C1` came in with an intrinsic clearance, human liver microsomes of no more than 4.74 mL/min/kg and an intrinsic clearance, rat liver microsomes of 43.8 mL/min/kg.
In the case of `Cc1cc(C)nc(-n2nc(C)c(CC(=O)NC3CCCCCC3)c2C)n1`, the MDR1-MDCK efflux ratio was 33.3; the intrinsic clearance, human liver microsomes worked out at 43.9 mL/min/kg; the intrinsic clearance, rat liver microsomes is 832 mL/min/kg; the aqueous solubility stood at 54.6 µg/mL (≈ 154 µM).
Turning to `CNc1nc(-c2cc(OC)cc(OC)c2)ncc1F`, the MDR1-MDCK efflux ratio was 0.408; the intrinsic clearance, human liver microsomes amounted to 37.1 mL/min/kg; the intrinsic clearance, rat liver microsomes is 118 mL/min/kg; the aqueous solubility was found to be 25.6 µg/mL (≈ 97.4 µM).
`CC(C)(C)c1ccc(C(=O)Nc2ccc(C(=O)Nc3ccccc3)cc2)cc1`: the MDR1-MDCK efflux ratio was 0.455 and the aqueous solubility was 0.4 µg/mL (≈ 1.07 µM).
Take `Cn1cc(-c2cn3nccc3c(-c3cnn([C@]4(CC#N)C[C@@H](C#N)C4)c3)n2)cn1`: the MDR1-MDCK efflux ratio amounted to 53.3; the fraction unbound, human plasma turned out to be 0.363; the fraction unbound, rat plasma was 0.231; the intrinsic clearance, human liver microsomes is no more than 4.74 mL/min/kg. Besides, the intrinsic clearance, rat liver microsomes is no more than 10.7 mL/min/kg and the aqueous solubility was determined as 2.2 µg/mL (≈ 5.74 µM).
With `Cc1nc(Cl)cc(Nc2cnn(C(C)(C)C)c2)n1`, the MDR1-MDCK efflux ratio was determined as 0.684; the intrinsic clearance, human liver microsomes was no more than 4.74 mL/min/kg; the intrinsic clearance, rat liver microsomes was found to be 21.4 mL/min/kg; the aqueous solubility turned out to be 22.6 µg/mL (≈ 85 µM).
